Test results from US20230312639A1, “GPER PROTEOLYTIC TARGETING CHIMERAS” (University of Iowa Research Foundation, priority 2020, published 2023).
“Also recorded” adds a separate entry of the source.

Assays:
[1] = biological target: T1, ERα (Homo sapiens, UniProt P03372); test: Immunostaining of endogenous receptors in MCF-7 cells; conditions: MCF-7, 1 hour
T1 sequence (P03372 1-595): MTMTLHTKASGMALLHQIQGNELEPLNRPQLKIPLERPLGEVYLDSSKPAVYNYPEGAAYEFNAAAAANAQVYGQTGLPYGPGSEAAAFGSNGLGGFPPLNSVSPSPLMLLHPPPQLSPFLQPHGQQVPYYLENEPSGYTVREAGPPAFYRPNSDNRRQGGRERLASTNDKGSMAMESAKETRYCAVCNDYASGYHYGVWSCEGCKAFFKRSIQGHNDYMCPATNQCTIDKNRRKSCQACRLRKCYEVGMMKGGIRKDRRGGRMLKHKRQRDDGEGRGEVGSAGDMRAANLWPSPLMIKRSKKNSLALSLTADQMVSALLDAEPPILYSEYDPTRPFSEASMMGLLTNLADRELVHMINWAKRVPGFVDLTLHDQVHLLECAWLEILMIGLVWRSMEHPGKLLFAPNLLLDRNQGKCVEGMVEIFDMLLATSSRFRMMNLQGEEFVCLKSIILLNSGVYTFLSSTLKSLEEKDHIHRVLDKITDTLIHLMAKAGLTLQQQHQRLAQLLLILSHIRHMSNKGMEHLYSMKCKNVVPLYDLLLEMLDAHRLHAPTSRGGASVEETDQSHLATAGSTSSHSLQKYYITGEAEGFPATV

[2] = tested on: MCF-7 cells; test: Cell viability assay, 24 hour treatment; type: cell-based, human; conditions: MCF-7, 24 hours, mean ± SD
Description: (§1) Cell cytotoxicity assays. […] In brief, breast cancer cells were seeded in 96 well-plates at a density of 10^4 cells/well in growth media. On the following day, the contents of the 96 well plates were aspirated and replaced by treatment at different concentrations (ranging from 10^-9 to 10^-3 M), followed by the addition of media to bring the total volume to 200 µL/well. The untreated control group was incubated with 200 µL/well of fresh media. One day later, the media were aspirated and replaced by 90 µL media + 10 µL Prestoblue reagent, followed by incubation at 37° C. for 1 h. The fluorescence was excited at 560 nm and emission was recorded at 590 nm using a Spectra Max plus 384 Microplate Spectrophotometer (Molecular Devices, Sunnyvale, CA). Relative cell viability values were expressed as the percentage of the fluorescence recorded from wells containing treated cells compared to the control wells containing untreated cells.
(§2) Each breast cancer cell line was treated for 24 hours with various concentrations of E2-PROTAC or partial PROTAC and then cell viability was assessed using an MTS assay that measures mitochondrial oxido-reductase enzymes capable of converting a tetrazolium salt to a formazan dye (summarized in Table 2). […] These IC50 values were similar to those measured for cells treated with partial PROATAC.

[3] = tested on: HCC1806 cells; test: Cell viability assay, 24 hour treatment; type: cell-based, human; conditions: HCC1806, 24 hours, mean ± SD
Description: as §1, §2

[4] = tested on: SKBR3 cells; test: Cell viability assay, 24 hour treatment; type: cell-based, human; conditions: SKBR3, 24 hours, mean ± SD
Description: as §1, §2

[5] = tested on: MDA-MB-231 cells; test: Cell viability assay, 24 hour treatment; type: cell-based, human; conditions: MDA-MB-231, 24 hours
Description: as §1, §2

[6] = tested on: HCC 1806 and SKBR3 cells; test: Survivability of breast cancer cells (Example 1); conditions: HCC 1806 and SKBR3, 24 hours of treatment
[7] = biological target: T2, HA-GPER (recombinant GPER) (Homo sapiens, UniProt Q99527); test: Surface receptor immunostaining / HA immunoblot in HA-GPER cells (Example 1); type: cell-based; conditions: 100 uM, 16 hr
T2 construct: expressed in transfected cells

[8] = tested on: ERs (ERa and ERb); test: Fluorescence polarization competitive binding with E2-FITC in cytosolic fractions from MCF-7 cells; design: species or system human
Description: ER binding was measured using cytosolic fractions prepared from MCF-7 cells by fluorescence polarization. MCF-7 (10^6 cells) were detached in EDTA, cell homogenates were prepared using a Dounce homogenizer and subcellular fractions were isolated by differential centrifugation as previously described (Filardo et al, 2002). The protein concentration of each fraction was determined by bichinchoninic acid (BCA) assay (Pierce ™ BCA protein assay kit, Thermo Fisher). For saturation binding assay of the probe, different concentrations of cytosolic fraction were diluted in assay buffer (10 mM Tris-HCl, pH 7.4; 50 mM KCl, 10% glycerol, 0.1 mM dithiothreitol (DTT), 1 ug/mL BGG, 10 nM protease inhibitor cocktail (Roche) to a final volume of 200 uL containing 10 nM Ez-FITC. The mixture was incubated at ambient temperature for 1 hour and interaction of the probe with cytosolic protein was determined by fluorescence polarization (FP). For competitive binding assay, an aliquot of cytosolic fraction and E2-FITC (10 nM final concentration) was mixed and incubated at 4° C. for 1 hour. Then different concentrations of drugs and controls were added to the mixture. The mixture was incubated for an additional hour and then subjected to FP. All samples were measured in triplicate. Negative controls (only cytosolic fraction or only E2-FITC) and positive control (E2-FITC and cytosolic fraction at 100% binding without treatment) were included. Relative binding affinities were expressed as the percentage of FP recorded from treated wells compared to the positive control. FP values in millipolarization units (mP) were measured at ex/em wavelength of 485 nm/530 nm respectively using the Spectra Max plus 384 Microplate Spectrophotometer (Molecular Devices, Sunnyvale, CA) in 96-well, black, flat-bottom microplates (Greiner Bio-One North America, Inc., Monroe, NC). Kd values of the probe were determined by nonlinear regression fitting of the saturation curves, while IC50 values of treatment were determined by nonlinear regression fitting of the competition curves.
In contrast to GPER, ERa and ERb are intracellular receptors that are concentrated in the cytoplasm and in the nucleus. […] A saturation analysis was performed using 10 nM E2-FITC and increasing concentrations of cytosolic protein (FIG. 25D).

Compound: Cc1ncsc1-c1ccc(CNC(=O)C2CC(O)CN2C(=O)C(NC(=O)COCCOCCOCCOCC(=O)OC2CCC3C4CCc5cc(O)ccc5C4CCC23C)C(C)(C)C)cc1 (stereo not shown) [UI-EP001]
- nuclear ERα expression [1]: Clear site-specific reduction
- IC50 [2]: 9 ± 1.2 µM
- IC50 [3]: 34.9 ± 1.2 µM
- IC50 [4]: 10.9 ± 1.2 µM
- IC50 [5]: > 100 µM
- survivability compared to partial PROTAC [6]: lower survivability
- surface recombinant GPER / HA-GPER expression [7]: causes downmodulation of surface recombinant GPER; also recorded: Significant degradation of GPER was observed
- RBA%, ERs ([8]; IC50 of 17β-E2 divided by IC50 of test compound): 32%
- IC50 ([8]; MCF-7 cytosolic fraction, 10 nM E2-FITC, mean ± SD of triplicates): 17.2 ± 8.2 nM
- Kd ([8]; MCF-7 cytosolic fractions, E2-FITC, read-out: binding dissociation constant (Kd), ER): 0.0172 µM
